Measurements reported in patent publication US7879887B2, “α-amino acid derivatives and medicaments containing the same as an active ingredient” (Nissan Chemical Industries, Ltd., priority 2006, dated 2011).

Tests used:
CDK3/Cyclin E complex = biological target: T1, CDK3/Cyclin E complex (Homo sapiens, UniProt Q00526); assay: In vitro kinase assay, CDK3/Cyclin E complex; format: biochemical; conditions: recombinant protein (Upstate); read-out: CDK3/cyclinE IC50
T1 construct: purchased Upstate Inc. 14-487
T1 sequence (Q00526 whole entry): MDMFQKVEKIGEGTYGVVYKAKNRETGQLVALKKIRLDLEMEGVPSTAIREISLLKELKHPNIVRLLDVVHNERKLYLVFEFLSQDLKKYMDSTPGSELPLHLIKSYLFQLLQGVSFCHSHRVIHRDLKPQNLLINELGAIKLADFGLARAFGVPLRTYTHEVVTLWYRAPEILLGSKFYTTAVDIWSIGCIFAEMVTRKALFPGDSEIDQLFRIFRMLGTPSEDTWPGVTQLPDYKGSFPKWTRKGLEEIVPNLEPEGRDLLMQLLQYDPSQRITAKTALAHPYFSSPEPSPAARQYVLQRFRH
T1 sequence (P24864 whole entry partner): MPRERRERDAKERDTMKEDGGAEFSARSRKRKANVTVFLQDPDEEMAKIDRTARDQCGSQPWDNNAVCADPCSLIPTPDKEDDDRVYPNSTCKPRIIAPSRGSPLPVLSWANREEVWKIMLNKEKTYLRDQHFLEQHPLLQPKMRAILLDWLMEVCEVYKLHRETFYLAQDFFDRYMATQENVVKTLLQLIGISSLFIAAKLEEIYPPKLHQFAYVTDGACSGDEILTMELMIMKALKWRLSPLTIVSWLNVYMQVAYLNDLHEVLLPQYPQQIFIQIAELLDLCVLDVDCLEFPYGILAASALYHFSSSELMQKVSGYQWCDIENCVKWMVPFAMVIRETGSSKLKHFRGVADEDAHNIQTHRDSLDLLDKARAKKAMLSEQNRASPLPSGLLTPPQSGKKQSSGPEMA
Description: (§1) Inhibitory activity against Aurora A, CDK1/Cyclin B complex, CDK2/Cyclin E complex and CDK3/Cyclin E complex were measured by in vitro kinase assay using recombinant proteins.

leukemia cell line KG-1a = assay: Cell proliferation inhibitory activity, KG-1a; format: cell-based; conditions: cells counted 4 days later with Cell Counting Kit-8
Description: (§2) Evaluations were carried out using colon carcinoma cell line SW620 (Cat. No. CCL-227), lung carcinoma cell line NCI-H460 (Cat. No. HTB-177), prostate cancer cell line DU 145 (Cat. No. HTB-81), breast cancer cell line MDA-MB-231 (Cat. No. HTB26) and leukemia cell line KG-1a (Cat. No. CCL-246.1) purchased from ATCC, pancreatic cancer cell line MIAPaCa-2 (Cat. No. CRL-1420) purchased from Dainippon Pharmaceutical, and ovarian cancer cell line IGROV1 received from the Netherland Cancer Institute. The cells were cultured under the conditions recommended by the supplier for each cell line, or with respect to IGROV1, according to the method described in Cancer Res. 59: 4559-4563, 1999. Cells suspended in media were added to solutions containing the test substances at various concentrations followed by culturing in a 5% CO2 incubator at 37° C. The numbers of cells were counted 4 days later with the Cell Counting Kit-8. IC50 values were calculated by assigning measured values in the case of not containing a test substance to an inhibition of 0%, and assigning measured values in the case of not containing a test substance or cells to an inhibition of 100%.

CDK2/Cyclin E complex = CDK2/Cyclin E complex (Homo sapiens, UniProt P24941); assay: In vitro kinase assay, CDK2/Cyclin E complex; format: biochemical; conditions: recombinant protein (Upstate); read-out: CDK2/cyclinE IC50
Description: as §1

Aurora A = biological target: T2, Aurora A (Homo sapiens, UniProt O14965); assay: In vitro kinase assay, Aurora A; format: biochemical; conditions: recombinant protein (Upstate)
T2 construct: purchased Upstate Inc. 14-511
T2 sequence (O14965 1-403): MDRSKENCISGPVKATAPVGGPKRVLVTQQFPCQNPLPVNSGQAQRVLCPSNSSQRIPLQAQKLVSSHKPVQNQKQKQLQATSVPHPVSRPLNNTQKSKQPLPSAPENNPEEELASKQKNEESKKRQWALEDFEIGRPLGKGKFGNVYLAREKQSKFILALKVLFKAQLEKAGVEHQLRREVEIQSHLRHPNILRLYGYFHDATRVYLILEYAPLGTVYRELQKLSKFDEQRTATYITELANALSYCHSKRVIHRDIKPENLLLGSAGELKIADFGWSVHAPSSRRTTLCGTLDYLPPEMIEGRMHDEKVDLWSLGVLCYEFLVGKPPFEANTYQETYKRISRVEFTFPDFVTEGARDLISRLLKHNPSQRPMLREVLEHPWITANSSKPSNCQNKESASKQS
Description: Inhibitory activity against Aurora A, CDK1/Cyclin B complex, CDK2/Cyclin E complex and CDK3/Cyclin E complex were measured by in vitro kinase assay using recombinant proteins. The assays were carried out by using recombinant proteins (Upstate Inc.) for Aurora A, CDK1/Cyclin B complex, CDK2/Cyclin E complex and CDK3/Cyclin E complex (respective cat. nos. 14-511, 14-450, 14-448 and 14-487), in accordance with the procedure described in the product instructions thereof. The 50% inhibitory concentrations (IC50 values) were calculated by assigning measured values in the case of not containing a test compound to an inhibition of 0%, and assigning measured values in the case of not containing a test compound and enzyme to an inhibition of 100%.

[1] = tested on: colon carcinoma cell line SW620; assay: Cell proliferation inhibitory activity, SW620; format: cell-based, human; conditions: cells counted 4 days later with Cell Counting Kit-8
Description: as §2

[2] = tested on: prostate cancer cell line DU 145; assay: Cell proliferation inhibitory activity, DU 145; format: cell-based, human; conditions: cells counted 4 days later with Cell Counting Kit-8
Description: as §2

Row | SMILES | IC50 (CDK3/Cyclin E complex) [nM] | IC50 (leukemia cell line KG-1a; Homo sapiens, 96 h) [nM] | IC50 (CDK2/Cyclin E complex) [nM] | IC50 ([1]; Homo sapiens, SW-620, 96 h) [nM] | other results
1 | O=C(CNc1cccc(O)c1)Nc1nc2ccc3[nH]ncc3c2s1 [compound 2] | 128 | < 100 | 82 | 1200 | IC50 (Aurora A): 148 nM
2 | COc1cc(NCC(=O)Nc2nc3ccc4[nH]ncc4c3s2)ccc1Cl [compound 4] | 468 | 100 | 335 | 2000 | 
3 | O=C(CNc1cc(F)cc(F)c1)Nc1nc2ccc3[nH]ncc3c2s1 [compound 5] |  |  |  |  | IC50 (leukemia cell line KG-1a): < 100 nM
4 | O=C(CNc1cccc(Cl)c1)Nc1nc2ccc3[nH]ncc3c2s1 [compound 8] |  |  | 171 |  | 
5 | O=C(CNc1ccc2[nH]ncc2c1)Nc1nc2ccc3[nH]ncc3c2s1 [compound 13] |  |  | 417 |  | 
6 | CS(=O)(=O)Nc1cccc(NCC(=O)Nc2nc3ccc4[nH]ncc4c3s2)c1 [compound 14] | 410 | 200 | 224 |  | 
7 | O=C(CNc1ccc2cn[nH]c2c1)Nc1nc2ccc3[nH]ncc3c2s1 [compound 15] | 88 |  | 40 |  | 
8 | O=C(CNc1ccccc1)Nc1nc2c(C(F)(F)F)cc3[nH]ncc3c2s1 [compound 18] | 380 |  |  |  | 
9 | Cc1cc2[nH]ncc2c2sc(NC(=O)CNc3ccccc3)nc12 [compound 19] | 242 |  | 190 | 2900 | 
10 | O=C(CNc1ccccc1)Nc1nc2c(F)cc3[nH]ncc3c2s1 [compound 20] |  |  |  |  | IC50 (leukemia cell line KG-1a): 100 nM; IC50 [1]: 1300 nM
11 | COc1cccc(NC(C)C(=O)Nc2nc3ccc4[nH]ncc4c3s2)c1 (stereo not drawn) [compound 22] |  | < 100 |  | 1700 | IC50 (Aurora A): 387 nM
12 | COc1cccc(NC(CC(C)C)C(=O)Nc2nc3ccc4[nH]ncc4c3s2)c1 (stereo not drawn) [compound 26] |  |  |  |  | IC50 (leukemia cell line KG-1a): 200 nM
13 | O=C(Nc1nc2ccc3[nH]ncc3c2s1)C(Nc1cccc(O)c1)c1ccccc1 (stereo not drawn) [compound 27] |  | 100 |  |  | IC50 (Aurora A): 115 nM
14 | CCC(=O)Nc1cc(NC(C(=O)Nc2nc3c(C(F)(F)F)cc4[nH]ncc4c3s2)c2ccccc2)ccc1Cl (stereo not drawn) [compound 31] | 353 |  | 372 | 2700 | 
15 | COc1cccc(NC(C)(C)C(=O)Nc2nc3ccc4[nH]ncc4c3s2)c1 [compound 34] |  | 100 |  |  | IC50 (Aurora A): 332 nM
16 | Cc1ccc(NC(C)(C)C(=O)Nc2nc3ccc4[nH]ncc4c3s2)cc1 [compound 39] | 367 | < 100 | 143 | 2000 | 
17 | COc1ccc(NC(C)(C)C(=O)Nc2nc3ccc4[nH]ncc4c3s2)cc1 [compound 40] |  | 200 | 340 | 2300 | 
18 | CC(C)(Nc1cccc(F)c1)C(=O)Nc1nc2ccc3[nH]ncc3c2s1 [compound 42] |  | < 100 | 434 | 2200 | 
19 | COc1cc(NC(C)(C)C(=O)Nc2nc3ccc4[nH]ncc4c3s2)ccc1Cl [compound 43] |  | 200 |  |  | IC50 (Aurora A): 347 nM
20 | CCOC(=O)c1cc(NC(C)(C)C(=O)Nc2nc3ccc4[nH]ncc4c3s2)ccc1Cl [compound 44] | 157 | < 100 | 160 |  | IC50 ([2]; Homo sapiens, 96 h): 4500 nM; IC50 (Aurora A): 107 nM
21 | CC(C)OC(=O)c1cc(NC(C)(C)C(=O)Nc2nc3ccc4[nH]ncc4c3s2)ccc1Cl [compound 47] | 343 | < 100 | 260 |  | IC50 (Aurora A): 148 nM
22 | CCOC(=O)c1cc(NC(C)(C)C(=O)Nc2nc3ccc4[nH]ncc4c3s2)ccc1F [compound 49] |  | < 100 |  |  | IC50 (Aurora A): 265 nM

Row | SMILES | IC50 (CDK3/Cyclin E complex) [nM] | IC50 (leukemia cell line KG-1a; Homo sapiens, 96 h) [nM] | IC50 (CDK2/Cyclin E complex) [nM] | IC50 ([1]; Homo sapiens, SW-620, 96 h) [nM] | other results
23 | CC(C)(Nc1ccc(Cl)cc1)C(=O)Nc1nc2c(C(F)(F)F)cc3[nH]ncc3c2s1 [compound 59] |  |  |  |  | IC50 [2]: 4200 nM; IC50 [1]: 2200 nM
24 | CC(C)(Nc1cccc(C(=O)O)c1)C(=O)Nc1nc2c(C(F)(F)F)cc3[nH]ncc3c2s1 [compound 66] | 333 |  |  |  | IC50 (Aurora A): 294 nM
25 | CC(C)(Nc1cccc(F)c1)C(=O)Nc1nc2c(C(F)(F)F)cc3[nH]ncc3c2s1 [compound 67] | 371 |  |  | 3000 | 
26 | CC(C)(Nc1ccc(F)c(F)c1)C(=O)Nc1nc2c(C(F)(F)F)cc3[nH]ncc3c2s1 [compound 72] | 180 |  | 335 | 2400 | IC50 ([2]; Homo sapiens, 96 h): 3500 nM
27 | CC(C)(Nc1ccc(F)cc1)C(=O)Nc1nc2c(C(F)(F)F)cc3[nH]ncc3c2s1 [compound 74] | 163 |  | 302 | 2700 | IC50 ([2]; Homo sapiens, 96 h): 3900 nM
28 | CC(C)(Nc1cccc(NS(C)(=O)=O)c1)C(=O)Nc1nc2c(C(F)(F)F)cc3[nH]ncc3c2s1 [compound 79] | 266 |  | 171 | 2400 | IC50 ([2]; Homo sapiens, 96 h): 3100 nM
29 | CC(C)(Nc1ccc(Cl)c(NC(=O)C2CC2)c1)C(=O)Nc1nc2c(C(F)(F)F)cc3[nH]ncc3c2s1 [compound 80] | 165 |  | 154 | 2300 | IC50 ([2]; Homo sapiens, 96 h): 4100 nM
30 | CC(C)(Nc1ccc2[nH]c(=O)[nH]c2c1)C(=O)Nc1nc2c(C(F)(F)F)cc3[nH]ncc3c2s1 [compound 83] |  |  | 343 |  | 
31 | CC(C)(Nc1ccc(Cl)cc1C(=O)NCC(N)=O)C(=O)Nc1nc2c(C(F)(F)F)cc3[nH]ncc3c2s1 [compound 88] | 386 |  | 449 | 2900 | 
32 | CC(C)(Nc1ccc(Cl)c(NC(=O)OCCO)c1)C(=O)Nc1nc2c(C(F)(F)F)cc3[nH]ncc3c2s1 [compound 89] | 105 |  | 225 | 2200 | IC50 ([2]; Homo sapiens, 96 h): 4500 nM
33 | CON(C)C(=O)c1cc(Cl)ccc1NC(C)(C)C(=O)Nc1nc2c(C(F)(F)F)cc3[nH]ncc3c2s1 [compound 100] | 344 | 300 | 391 | 3300 | 
34 | O=C(CNc1ccc(F)cc1)Nc1nc2ccc3[nH]ncc3c2s1 [compound 105] | 257 | 100 | 205 | 1500 | 
35 | CC(=O)Nc1cccc(NCC(=O)Nc2nc3ccc4[nH]ncc4c3s2)c1 [compound 106] | 153 | < 100 | 55 |  | 
36 | O=C(CNc1ccccc1)Nc1nc2ccc3[nH]nc(Cl)c3c2s1 [compound 108] |  |  |  |  | IC50 (leukemia cell line KG-1a): 300 nM
37 | NC(=O)CC(Nc1cccc(O)c1)C(=O)Nc1nc2ccc3[nH]ncc3c2s1 (stereo not drawn) [compound 109] | 55 | < 100 | 56 |  | IC50 (Aurora A): 364 nM
38 | COc1cccc(NC(CC(N)=O)C(=O)Nc2nc3ccc4[nH]ncc4c3s2)c1 (stereo not drawn) [compound 110] | 392 |  | 320 |  | 
39 | O=C(Nc1nc2ccc3[nH]ncc3c2s1)C1CCCN1c1ccc(Cl)cc1 (stereo not drawn) [compound 111] | 262 | 500 | 100 | 2300 | 
40 | COc1cccc(NC2(C(=O)Nc3nc4ccc5[nH]ncc5c4s3)CC2)c1 [compound 119] |  |  |  |  | IC50 (leukemia cell line KG-1a): 300 nM; IC50 [1]: 2600 nM
41 | CC(C)OC(=O)c1cc(NC2(C(=O)Nc3nc4ccc5[nH]ncc5c4s3)CC2)ccc1Cl [compound 123] | 195 |  | 141 | 2300 | 
42 | CN(C)C(=O)c1cc(NC2(C(=O)Nc3nc4ccc5[nH]ncc5c4s3)CC2)ccc1Cl [compound 124] |  |  |  |  | IC50 (leukemia cell line KG-1a): 100 nM
43 | CC(=O)Nc1cc(NC(C(=O)Nc2nc3ccc4[nH]ncc4c3s2)c2ccccc2)ccc1Cl (stereo not drawn) [compound 131] | 427 |  | 277 | 3000 | IC50 (Aurora A): 94 nM
44 | COC(=O)c1cccc(NCC(=O)Nc2nc3ccc4[nH]ncc4c3s2)c1 [compound 134] | 477 | < 100 | 339 | 1900 | 
